The structures appear in SMILES notation.

Common to all, as to assay type: cell-based
Set-up in all cases: expressed in transfected cells; host or cells: HEK293 cells transfected with VIPR2 in pCDNA3.1 (as described)

Test [1] concerns the target T1, VIPR2 (Homo sapiens, UniProt P41587).
T1 sequence (P41587 24-438): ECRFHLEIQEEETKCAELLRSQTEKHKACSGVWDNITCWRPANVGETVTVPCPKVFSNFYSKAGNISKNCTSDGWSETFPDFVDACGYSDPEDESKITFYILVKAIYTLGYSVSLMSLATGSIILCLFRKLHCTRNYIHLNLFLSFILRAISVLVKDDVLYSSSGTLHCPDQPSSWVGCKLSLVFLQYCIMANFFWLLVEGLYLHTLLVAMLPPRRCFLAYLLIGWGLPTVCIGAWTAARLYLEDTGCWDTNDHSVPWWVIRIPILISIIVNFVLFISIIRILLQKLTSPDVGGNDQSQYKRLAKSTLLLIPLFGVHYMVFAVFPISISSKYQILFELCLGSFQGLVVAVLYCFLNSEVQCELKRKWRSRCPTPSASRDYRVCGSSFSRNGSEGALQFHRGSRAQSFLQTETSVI
In words: Inhibition of VIP-induced β-arrestin recruitment (% Activity Arrestin). An excerpt:
(§1) In a further non-limiting embodiment of the invention, the ability of a compound to inhibit VIPR2 GPCR activity may be tested, for example, using the PathHunter® eXpress β-Arrestin GPCR system (Discoverx Corporation, Fremont, Calif., US), as used by Chu et al., 2010, Molecular Pharmacol. 7795-101. In this assay, β-Arrestin is fused to the “Enzyme Acceptor” (“EA”), an N-terminal deletion mutant of β-gal, and the GPCR of interest is fused to a smaller (42 amino acids), weakly complementing portion of the β-gal enzyme (termed “ProLink™”). In cells that stably express these fusion proteins, the interaction of β-Arrestin and the GPCR following ligand stimulation forces the complementation of the two β-gal fragments resulting in the formation of a functional enzyme that converts substrate to detectable signal. In the absence of an interaction between the GPCR and β-Arrestin, the enzyme activity is low due to the low affinity of the two enzyme fragments. For example, a nucleic acid encoding VIPR2, for example hVIPR2, may be cloned into the ProLink vector (DiscoveRx) for GPCR-ProLink fusion protein production. Parental HEK293 cells that stably express β-arrestin2-β-gal-EA fusion protein (DiscoveRx) may be detached and transiently transfected with the VIPR2-containing vector using Fugene6 transfection reagent in suspension mode. Transfected cells in assay medium may be plated into test plates, for example at 15,000 cells/25 μl/well. After overnight incubation, 500 nl of an inhibitor or test inhibitor may be introduced into the test plate followed by 2 h incubation at 37° C., 5% CO2. Flash detection reagents may be added at 12.5 μl/well. After 5 min to 1 h of room-temperature incubation, the cell plates may be read on CLIPR (PerkinElmer Life and Analytical Sciences)or Acquest (Molecular Devices, Sunnyvale, Calif.) for luminescence signal.
(§2) A series of compounds were prepared using a synthetic method analogous to that set forth in Scheme 1, above, and then tested for their ability to inhibit VIP-induced cAMP elevation and β-arrestin recruitment.
(§3) A series of compounds were prepared using a synthetic method analogous to that set forth in Scheme 1, above, and then tested for their ability to inhibit VIP-induced cAMP elevation and β-arrestin recruitment, as described herein (Discoverx Corporation, Fremont, Calif., US). Compound activities were also tested in a BRET-based assay, as described herein. The results are shown below in Tables 1-4, above.
A general note: Activated receptors often draw arrestin, which recruitment assays turn into a signal.

Test [2] has as its target T1, VIPR2. In words: Inhibition of VIP-induced cAMP elevation (% Activity cAMP).
Source text: (§4) In a further non-limiting embodiment of the invention, the ability of a compound to inhibit VIPR2 and thereby […] a VIP-induced increase in cAMP may be measured using a Homogeneous Time-Resolved Fluorescence (“HTRF® assay; Cisbio Bioassays) as used in Chu et al., 2010, Molecular Pharmacol. 7795-101. In a method as used in Chu et al., 2010, Molecular Pharmacol. 7795-101, HEK293 cells may be transfected with nucleic acid encoding VIPR2, for example human VIPR2 (“hVIPR2”), for example comprised in a vector such as pCDNA3.1 vector. Successful transformants may then be selected, for example using 800 μg/ml G418. Clonal stable cell lines may then be generated by limited dilution to single cells and then may be clonally expanded and tested for VIP -dependent cAMP response. For the cAMP assay, about 3000-15,000 cells (in about 4-25 μl) may be placed in a well of an assay plate. The next day, inhibitor or test inhibitor and VIP may be added in a volume about 1-2 percent of the initial volume. Assay plates may then be returned to a cell incubator for 30 min before addition of a one-half volume of cAMP conjugate and, relative to the amount of cAMP conjugate, an equal volume of anti-cAMP conjugate (Cisbio). After at least 1 h of room-temperature incubation, HTRF signal may be read, for example using Viewlux or EnVision (PerkinElmer Life and Analytical Sciences, Waltham, Mass.). The ratio of […] at 665 nm and 620 nm times 10,000 may be calculated and plotted.
as §2, §3

For test [3], the target named is T1, VIPR2. In words: % Activity: inhibition of VIP-induced cAMP elevation and β-arrestin recruitment (Table 2).
Source text: as §4, §1, §3

As to `O=C([C@H](Cc1ccccc1)C[C@H](O)CNS(=O)(=O)c1ccc([N+](=O)[O-])cc1)N1CCOCC1` [Compound B9A], in test [1] (Batch 2), the inhibition at 0.5 µM was -4.3%, the inhibition at 1 µM was 8.9% and the inhibition at 5 µM is -1.2%. For the same molecule, in test [2] (Batch 2), the inhibition at 0.5 µM was -3.8%, the inhibition at 1 µM is -1.6% and the inhibition at 5 µM was 2.4%. Also, the “% Activity” value in test [3] was 0.6%.
On to `CC(C)Nc1ccc(S(=O)(=O)NC[C@@H](O)C[C@@H](Cc2ccccc2)C(=O)N[C@H]2c3ccccc3C[C@H]2O)cc1` [Compound X085], for which, in test [1] (Batch 3), the inhibition at 0.5 µM came to 8.1%, the inhibition at 1 µM was -2% and the inhibition at 5 µM amounted to 11.8%. Besides, in test [2] (Batch 3), the inhibition at 0.5 µM is 17.2%, the inhibition at 1 µM is 18.2% and the inhibition at 5 µM was found to be 20.6%. Also, the “% Activity” value in test [3] is 16.2%.
Consider `CC1CCC(NC(=O)[C@@H](Cc2ccccc2)C[C@H](O)CNS(=O)(=O)c2ccc([N+](=O)[O-])cc2)CC1` (stereo partly shown) [Compound B8B], for which, in test [1] (Batch 2), the inhibition at 0.5 µM worked out at 5.7%, the inhibition at 1 µM is -0.4% and the inhibition at 5 µM was -0.8%. For the same molecule, in test [2] (Batch 2), the inhibition at 0.5 µM was -0.7%, the inhibition at 1 µM amounted to 9.5% and the inhibition at 5 µM came out at 5.1%. The “% Activity” value in test [3] turned out to be 2.15%.
Take `CC(C)CNc1ccc(S(=O)(=O)NC[C@@H](O)C[C@@H](Cc2ccccc2)C(=O)N[C@H]2c3ccccc3C[C@H]2O)cc1` [Compound X086]: in test [1] (Batch 3), the inhibition at 0.5 µM was 10.2%, the inhibition at 1 µM was determined as 5.2% and the inhibition at 5 µM came out at 11.9%. For the same molecule, in test [2] (Batch 3), the inhibition at 0.5 µM worked out at 21.6%, the inhibition at 1 µM was 16.7% and the inhibition at 5 µM was 27.4%. The “% Activity” value in test [3] was 19.65%.
Regarding `O=C(CCCCBr)NC[C@@H](O)C[C@@H](Cc1ccccc1)C(=O)N[C@H]1c2ccccc2C[C@H]1O` [Compound A15], in test [1] (Batch 1), the inhibition at 0.5 µM turned out to be 1.7%, the inhibition at 1 µM is -28.8% and the inhibition at 5 µM was -10.6%. In addition, in test [2] (Batch 1), the inhibition at 0.5 µM was found to be 11.7%, the inhibition at 1 µM was 12.9% and the inhibition at 5 µM was found to be 9.4%. In addition, the “% Activity” value in test [3] is reported as −0.6%.
For `CC(=O)Nc1ccc(S(=O)(=O)NC[C@@H](O)C[C@@H](Cc2ccccc2)C(=O)N[C@H]2c3ccccc3C[C@H]2O)cc1` [Compound X088], in test [1] (Batch 3), the inhibition at 0.5 µM is -1.2%, the inhibition at 1 µM came to 4.9% and the inhibition at 5 µM was determined as 4.2%. Moreover, in test [2] (Batch 3), the inhibition at 0.5 µM was determined as 15.2%, the inhibition at 1 µM came out at 19.1% and the inhibition at 5 µM was 19.1%. Also, the “% Activity” value in test [3] was 11.65%.
Consider `CNC(=O)c1ccc(S(=O)(=O)NC[C@@H](O)C[C@@H](Cc2ccccc2)C(=O)N[C@H]2c3ccccc3C[C@H]2O)cc1` [Compound X095], for which, in test [1] (Batch 3), the inhibition at 0.5 µM is 6.3%, the inhibition at 1 µM was -1.6% and the inhibition at 5 µM is -1%. Further, in test [2] (Batch 3), the inhibition at 0.5 µM amounted to 13.8%, the inhibition at 1 µM was determined as 22.1% and the inhibition at 5 µM was 69.5%. The “% Activity” value in test [3] is on record as 34.25%.
As for `O=C(NC1CCCC1)c1ccc(S(=O)(=O)NC[C@@H](O)C[C@@H](Cc2ccccc2)C(=O)N[C@H]2c3ccccc3C[C@H]2O)cc1` [Compound X097], in test [1] (Batch 3), the inhibition at 0.5 µM is 3.9%, the inhibition at 1 µM was determined as 0.5% and the inhibition at 5 µM is 0.1%. In test [2] (Batch 3), the inhibition at 0.5 µM was determined as 15.2%, the inhibition at 1 µM stood at 19.6% and the inhibition at 5 µM was 31.8%. Also, the “% Activity” value in test [3] is recorded as 15.95%.
In the case of `O=C([C@@H](Cc1ccccc1)C[C@H](O)CNS(=O)(=O)c1ccc([N+](=O)[O-])cc1)N1CCCCC1` [Compound B18B], in test [1] (Batch 2), the inhibition at 0.5 µM is 0.5%, the inhibition at 1 µM was determined as 9.2% and the inhibition at 5 µM was found to be 14.9%. Further, in test [2] (Batch 2), the inhibition at 0.5 µM was determined as 14.2%, the inhibition at 1 µM came to 14.2% and the inhibition at 5 µM is 9.4%. The “% Activity” value in test [3] is on record as 12.15%.
On to `CC(C)(C)c1ccc(C(=O)NC[C@@H](O)C[C@@H](Cc2ccccc2)C(=O)N[C@H]2c3ccccc3C[C@H]2O)cc1` [Compound A26], for which, in test [1] (Batch 1), the inhibition at 0.5 µM is 16.2%, the inhibition at 1 µM is 11.3% and the inhibition at 5 µM was determined as 7.8%. In test [2] (Batch 1), the inhibition at 0.5 µM was 10.7%, the inhibition at 1 µM was 16% and the inhibition at 5 µM was found to be 23.2%. The “% Activity” value in test [3] is recorded as 15.5%.
As for `CC(C)(C)c1ccc(S(=O)(=O)NC[C@@H](O)C[C@@H](Cc2ccccc2)C(=O)N[C@H]2c3ccccc3C[C@H]2O)cc1` [A, reference compound], in test [1] (Batch 1), the inhibition at 0.5 µM worked out at 0%, the inhibition at 1 µM was found to be 18.1% and the inhibition at 5 µM was determined as 56.7%. For the same molecule, in test [2] (Batch 1), the inhibition at 0.5 µM was 9.7%, the inhibition at 1 µM was 13% and the inhibition at 5 µM came to 72.1%.
On to `O=C(N[C@H]1c2ccccc2C[C@H]1O)[C@H](Cc1ccccc1)C[C@H](O)CNS(=O)(=O)c1ccc([N+](=O)[O-])cc1` [Compound A27, reference compound], for which the inhibition at 0.5 µM in test [1] (Batch 1) was 37.7%; in test [1] (Batch 2), 15.6%; in test [1] (Batch 3) it was 2.6%; in test [2] (Batch 1) it was 42.6%; in test [2] (Batch 2), 38.7%; in test [2] (Batch 3) it was 74.3%. The inhibition at 1 µM was 74.6% in test [1] (Batch 1); 38.6% in test [1] (Batch 2); -2.6% in test [1] (Batch 3); 71.3% in test [2] (Batch 1); 70.9% in test [2] (Batch 2); 86.1% in test [2] (Batch 3). The inhibition at 5 µM came out at 88.7% in test [1] (Batch 1); 92% in test [1] (Batch 2); 29.3% in test [1] (Batch 3); 99.1% in test [2] (Batch 1); 100% in test [2] (Batch 2); 97.8% in test [2] (Batch 3).

By inhibition is commonly meant the relative decrease from the control value, in per cent.

(Values after patent publication US20150239831A1, “INHIBITORS OF CENTRAL NERVOUS SYSTEM VASOACTIVE INHIBITORY PEPTIDE RECEPTOR 2” (The Trustees Of Columbia University In The City Of New York, priority 2012, published 2015).)
